What was measured:
Type in all cases: cell-based
[1] = tested on: RAW 264.7 mouse macrophages; assay: Assay for measuring reactive oxygen species (ROS), DCFH-DA, H2O2; settings: H2O2 treated RAW 264.7 cells
Procedure: Formation of ROS was measured using of the fluorescent probe DCFH-DA. The method is based on the incubation of the RAW 264.7 mouse macrophages with DCFH-DA, which diffuses passively through the cellular membrane. Intracellular esterase activity results in the formation of DCFH, which emits fluorescence when oxidized to 20, 70-dichlorofluorescein (DCF). Briefly, the cells (final concentration 2×10^6/ml suspension) were incubated with DCFH-DA ([…]) in HEPES-buffered (20 mM) HBSS (CaCl2 1.26 mM, KCL 5.37 mM, KH2PO4 0.44 mM; MgCl2
0.49 mM, MgSO4 0.41 mM, NaCl 140 mM, NaHCO3 4.17 mM, Na2HPO4 0.34 mM) with glucose (5 mM) at 37° C. for 15 min. Following centrifugation, the extracellular buffer with DCFH-DA was exchanged with fresh buffer and the suspension was mixed gently. […] Fluorescence was recorded using excitation wavelength 485 nm, emission wavelength 530 nm in a Modulus luminescence spectrometer (Turner Biosystems, USA) for 120 min. Results are calculated as area under the curve (AUC) and the percentage of inhibition of intracellular ROS generation was calculated from the cultures treated with H2O2.

[2] = tested on: IMR32 human neuroblastoma cells; assay: MTT cell proliferation assay, protection from oxidative stress induced cytotoxic damage; settings: vehicle control 100.00, H2O2 alone 78.71
Procedure: Briefly, IMR32 human neuroblastoma cells were cultivated in Dulbecco's modified Eagle's red medium (DMEM) (Sigma Life Science, USA) containing 10% fetal bovine serum (FBS). Equal number of IMR32 cells was seeded in to each well of 96 well microplate and incubated at 37° C. with 5% CO2. […] Control wells were supplemented with 0.05% DMSO. After 72 h of treatment, equal volume of MTT reagent (R&D Systems, USA) was added to each well and incubated for 4 h. Thereafter, 50 μl of solublization buffer (R&D Systems, USA) was added to each well to solubilize the colored formazan crystals produced by the reduction of MTT. After 24 h, the optical density was measured at 550 nm using microplate reader (Bio-Rad, USA). In each assay, the vehicle control and the treatments were done in quadruplicates. The average OD obtained in the vehicle control wells is considered as the cell proliferation index of 100.

[3] = target: T1, acetylcholine esterase (AChE) (Rattus norvegicus, UniProt P37136); assay: Acetylcholine esterase inhibitory activity in β-amyloid peptide induced PC 12 cells; settings: Beta Amyloid induced PC12 cells, Table 8
T1 construct: The cell extracts were used as samples for measuring the acetylcholine esterase (AChE) activity; endogenous in cells; host or cells: rat pheochromocytoma PC 12 cells, induced with β-amyloid peptide
T1 sequence (P37136 32-614): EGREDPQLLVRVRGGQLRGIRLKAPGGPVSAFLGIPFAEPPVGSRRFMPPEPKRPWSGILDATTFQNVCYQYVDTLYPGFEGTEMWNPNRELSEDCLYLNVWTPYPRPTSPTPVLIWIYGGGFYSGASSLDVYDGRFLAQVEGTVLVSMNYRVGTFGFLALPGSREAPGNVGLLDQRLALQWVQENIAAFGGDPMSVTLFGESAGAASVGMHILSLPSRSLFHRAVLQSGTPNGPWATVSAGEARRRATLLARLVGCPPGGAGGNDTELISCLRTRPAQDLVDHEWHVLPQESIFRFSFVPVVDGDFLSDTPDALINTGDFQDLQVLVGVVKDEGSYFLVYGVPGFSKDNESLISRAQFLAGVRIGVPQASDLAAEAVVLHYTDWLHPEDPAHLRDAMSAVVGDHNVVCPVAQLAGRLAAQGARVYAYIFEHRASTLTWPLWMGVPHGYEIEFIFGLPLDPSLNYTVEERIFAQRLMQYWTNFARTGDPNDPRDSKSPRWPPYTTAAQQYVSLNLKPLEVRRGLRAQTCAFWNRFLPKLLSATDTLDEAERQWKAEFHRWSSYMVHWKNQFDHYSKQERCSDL
Procedure: As a part of developing new agents for improving brain/mental function and alleviating disease conditions related to cognition and memory deficits, a large number of plant extracts have been screened for their inhibitory property on Acetylcholinesterase enzyme activity. The assay was performed in vitro by the method of Ellman et al., with minor modifications, using acetylthiocholine iodide as a substrate (Lee J. H., et. al. Arch Pharm Res 2004, 27(1): 53-56). […] Its acetylcholinesterase inhibitory activity was also evaluated by a cell based in vitro assay in Rat pheochromocytoma PC 12 cells. […] Rat pheochromocytoma PC 12 cells were equally distributed with phenol red free Dulbecco's modified Eagle's red medium (DMEM) (Sigma Life Science, USA) containing 10% fetal bovine serum (FBS) in 24-well plate. […] Thereafter, cells were induced with 1 μg/mL of β-amyloid peptide (Calbiochem, USA) for 24 h at 37° C. After 24 h, cells were collected and washed twice with 1×PBS by centrifugation at 1200 rpm for 5 min at 4° C. The cell extracts were prepared in solubilization buffer and the cell lysates were analyzed for acetylcholine esterase (AChE) activity.
The inhibitory property on the enzyme activity was assessed in β-amyloid peptide induced-rat pheochromocytoma PC 12 cells. Rat pheochromocytoma PC 12 cells were equally distributed with phenol red free Dulbecco's modified Eagle's red medium (DMEM) (Sigma Life Science, USA) containing 10% fetal bovine serum (FBS) in 24-well plate. […] Thereafter, cells were induced with 1 μg/mL of β-amyloid peptide (Calbiochem, USA) for 24 h at 37° C. After 24 h, cells were collected and washed twice with 1×PBS by centrifugation at 1200 rpm for 5 min at 4° C. Cell extracts were prepared in solubilization buffer (10 mM Tris, pH 7.2; 100 mM NaCl, 50 mM MgCl2, 1% Triton X-100). The cell extracts were used as samples for measuring the acetylcholine esterase (AChE) activity.
Cell extract samples (100 μl) were dispensed into each well of 96-well microtitre plate. Fifty micro liters of DTNB (Dithiobisnitro benzoate) solution was added to each well and incubated for 5 min at room temperature. After incubation, 50 μl of acetyl choline iodide solution was added to each well and absorbance was read immediately at 405 nm for 12 min at 2 min intervals. A standard curve was constructed by using serial concentrations of acetyl cholinesterase (0-100 mU). Total protein present in 100 μl aliquot of cell extract was calculated by Bradford method and the enzyme activity was normalized and expressed as unit activity per milligram of protein.

COc1c(O)cc2oc3cc(O)c(CC=C(C)C)c(O)c3c(=O)c2c1CC=C(C)C [α-mangostin]
Inhibition of Reactive Oxygen Species (ROS) generation (IC50) [1]: 49.817 µg/mL
Cell proliferation Index ([2]; 10 ng/ml with 250 uM H2O2, 72 h): 80.32
Cell proliferation Index ([2]; 25 ng/ml with 250 uM H2O2, 72 h): 86.78
Cell proliferation Index ([2]; 50 ng/ml with 250 uM H2O2, 72 h): 87.21
Cell proliferation Index ([2]; 100 ng/ml with 250 uM H2O2, 72 h): 91.78
% inhibition in Acetylcholinesterase (AChE) activity ([3]; 100 ng/ml): 26.83%
% inhibition in Acetylcholinesterase (AChE) activity ([3]; 250 ng/ml): 29.48%
